Laboratory results: patent US7754705B2, “Cationic steroid antimicrobial compositions and methods of use” (priority 2006, dated 2010)
Read-outs that look alike come from different tables or passages of the source.

How the values were obtained:
vaccinia virus [1] = system: vaccinia virus
vaccinia virus [2] = assay type: cell-based, vaccinia virus; human keratinocytes (HaCaT)
vaccinia virus [3] = experiment: microbe, parasite or virus in culture; conditions: Orthopoxvirus vaccinia, BSC-1, in Chlorocebus sabaeus, 24 h
vaccinia lipid envelope = assay type: binding, vaccinia virus; keratinocytes

| SMILES | % Viability (vaccinia virus [1]; 5 μM) | % Viability (vaccinia virus [1]; 10 μM) | % Viability (vaccinia virus [1]; 25 μM) | % Viability (vaccinia virus [1]; 50 μM) | % Viability (vaccinia virus [1]; 100 μM) | activity against vaccinia virus (vaccinia gene expression) (vaccinia virus [2]) | effectiveness in killing vaccinia virus (in words) (vaccinia virus [1]) | % Viability (vaccinia virus [1]; 1 μM) | viability at 5 µM (vaccinia virus [3]) | viability at 10 µM (vaccinia virus [3]) | viability at 25 µM (vaccinia virus [3]) | viability at 50 µM (vaccinia virus [3]) | viability at 100 µM (vaccinia virus [3]) | concentration at which significant viral killing was observed / compound was effective (vaccinia virus [1]) | incorporation into vaccinia lipid envelope versus keratinocyte membrane (vaccinia lipid envelope) |
| --- | --- | --- | --- | --- | --- | --- | --- | --- | --- | --- | --- | --- | --- | --- | --- |
| CCCCCCCCNCCC[C@@H](C)[C@H]1CC[C@H]2[C@@H]3[C@H](OCCCN)C[C@@H]4C[C@H](OCCCN)CC[C@]4(C)[C@H]3C[C@H](OCCCN)[C@]12C [CSA-13] | 37.50% | 8.82% | 3.31% | 0.00% | 0.00% | most effective |  |  |  |  |  |  |  |  |  |
| CC(CCCOS(=O)(=O)O)C1CCC2C3C(OCCCN)CC4CC(OCCCN)CCC4(C)C3CC(OCCCN)C12C (stereo not drawn) [CSA-21] | 100.00% | 71.76% | 40.39% | 14.12% | 4.31% |  |  |  |  |  |  |  |  |  |  |
| CCCCCCCCNCCC[C@@H](C)[C@H]1CC[C@H]2[C@@H]3CC[C@@H]4C[C@H](OCCCN)CC[C@]4(C)[C@H]3C[C@H](OCCCN)[C@]12C [CSA-46] | 41.89% | 3.77% | 0.38% | 0.00% | 0.00% | most effective |  |  |  |  |  |  |  |  |  |
| CC(CCCO)C1CCC2C3C(OCCCN)CC4CC(OCCCN)CCC4(C)C3CC(OCCCN)C12C (stereo not drawn) [CSA-8] | 61.87% | 28.79% | 4.67% | 2.33% | 1.56% |  |  |  |  |  |  |  |  |  |  |
| CC(CCCO)C1CCC2C3C(NC(=O)CCCCCN)CC4CC(NC(=O)CCCCCN)CCC4(C)C3CC(NC(=O)CCCCCN)C12C (stereo not drawn) [CSA-31] | 99.24% | 99.24% | 101.52% | 102.28% | 101.52% |  | little or no detectable activity |  |  |  |  |  |  |  |  |
| CCCCCCCCCCCCCCCCNCCCC(C)C1CCC2C3C(OCCCN)CC4CC(OCCCN)CCC4(C)C3CC(OCCCN)C12C.Cl.Cl.Cl.Cl (stereo not drawn) [CSA-92] | 0.00% | 0.00% | 0.00% | 0.00% | 0.00% |  | most effective | 0.00% |  |  |  |  |  |  |  |
| CC(CCCOCCCN)C1CCC2C3C(OCCCN)CC4CC(OCCCN)CCC4(C)C3CC(OCCCN)C12C (stereo not drawn) [CSA-25] | 97.40% | 74.35% | 66.91% | 39.41% | 10.04% |  |  |  |  |  |  |  |  |  |  |
| CC(O)[C@H]1CC[C@H]2[C@@H]3[C@H](OCCCN)C[C@@H]4C[C@H](OCCCN)CC[C@]4(C)[C@H]3C[C@H](OCCCN)[C@]12C (stereo partly drawn) [CSA-11] |  |  |  |  |  |  |  |  | 84.2% | 92.9% | 100% | 97.3% | 98.4% |  |  |
| CCCCCCCCN(CCCCCCCC)CCCC(C)C1CCC2C3C(OCCCN)CC4CC(OCCCN)CCC4(C)C3CC(OCCCN)C12C.Cl.Cl.Cl.Cl (stereo not drawn) [CSA-91] | 0.00% | 0.00% | 0.00% | 0.00% | 0.00% |  | most effective | 10.31% |  |  |  |  |  |  |  |
| CCCCCCCCOCCCC(C)C1CCC2C3C(OCCCN)CC4CC(OCCCN)CCC4(C)C3CC(OCCCN)C12C (stereo not drawn) [CSA-7] | 0.56% | 0.00% | 0.00% | 0.00% | 0.00% | most effective |  |  |  |  |  |  |  | 5 µM |  |
| CCCCCN(CCCCC)CCCC(C)C1CCC2C3C(OCCCN)CC4CC(OCCCN)CCC4(C)C3CC(OCCCN)C12C.Cl.Cl.Cl.Cl (stereo not drawn) [CSA-90] | 23.67% | 14.49% | 7.73% | 4.83% | 0.48% |  |  | 64.73% |  |  |  |  |  |  |  |
| CC(CCCNCCCNCCCN)C1CCC2C3C(OCCCN)CC4CC(OCCCN)CCC4(C)C3CC(OCCCN)C12C (stereo not drawn) [CSA-54] | 103.91% | 101.12% | 95.53% | 101.12% | 95.53% |  | little or no detectable activity |  |  |  |  |  |  |  |  |
| CC(CCCNC(=O)CCC(=O)c1ccc2cc(N(C)C)ccc2c1)C1CCC2C3C(OCCCN)CC4CC(OCCCN)CCC4(C)C3CC(OCCCN)C12C (stereo not drawn) [CSA-59] | 97.83% | 66.31% | 26.09% | 0.54% | 0.00% |  |  |  |  |  |  |  |  |  | preferentially incorporates into the vaccinia lipid envelope over the keratinocyte membrane with a high degree of selectivity |
| CCCOCCCC(C)C1CCC2C3C(OCCCN)CC4CC(OCCCN)CCC4(C)C3CC(OCCCN)C12C (stereo not drawn) [CSA-17] | 53.18% | 19.48% | 3.00% | 0.00% | 0.00% |  |  |  |  |  |  |  |  |  |  |
| CC(CCCN)C1CCC2C3C(OCCCN)CC4CC(OCCCN)CCC4(C)C3CC(OCCCN)C12C (stereo not drawn) [CSA-15] | 98.88% | 93.68% | 101.49% | 97.40% | 65.80% |  |  |  |  |  |  |  |  |  |  |
